# Assay results published in US20260365670A1, “EGFR INHIBITORS AND USES THEREOF” (DIZAL (JIANGSU) PHARMACEUTICAL CO., LTD., priority 2022, published 2026).
# Read-outs that look alike come from different tables or passages of the source.
# How the values were obtained:
# [1] = target: T1, EGFR wild type (Homo sapiens, UniProt P00533); assay: Inhibition of EGFR wild type biochemical enzymatic activity (HTRF); details: 1 mM ATP
# T1 construct: purchased Carna Bio
# Description: (§1) Biological Example 1: Inhibition of EGFR WT and Mutant Biochemical Enzymatic Activity
# (§2) The inhibition potency of compounds against these enzymes was assessed using Homogenous Time Resolved Fluorescence approach (HTRF, CisBio. Cat No. 62TKOPEJ).
# (§3) Inhibitory effects of the compounds were determined by measuring the enzymatic activity of EGFR enzyme phosphorylates 1 μM TK Substrate-biotin in the presence of 1 mM adenosine-5′-triphosphate (ATP) and varying concentrations of the test compound. The enzyme reaction buffer contains 5 mM MgCl2, 1 mM MnC12, 0.01% CHAPS, 1 mM dithiothreitol (DTT), 0.5% dimethylsulfoxide (DMSO), and 1× supplemented enzymatic buffer. The WT and mutant EGFR enzymes (SignalChem) were added to plates containing inhibitors, followed by activation of the kinase reaction by addition of ATP and peptide substrates. After incubation for 1 h at room temperature, the reaction was stopped by the addition of the detection reagent mix containing EDTA. The fluorescence was measured at 615 nm and 665 nm, respectively with excitation wavelength at 320 nm. The calculated signal ratio of 665 nm/615 nm is proportional to the kinase activity. The concentration of compound producing 50% inhibition of the respective kinase (IC50) was calculated using four-parameter logistic fit with XL-FIT.
# [2] = target: T2, EGFR L858R (Homo sapiens, UniProt P00533, L858R); assay: Inhibition of EGFR L858R biochemical enzymatic activity (HTRF); details: 1 mM ATP
# T2 construct: purchased Carna Bio
# Description: as §1, §2, §3
# [3] = target: T3, EGFR L858R/T790M (Homo sapiens, UniProt P00533, L858R/T790M); assay: Inhibition of EGFR L858R/T790M biochemical enzymatic activity (HTRF); details: 1 mM ATP
# T3 construct: purchased Carna Bio
# Description: as §1, §2, §3
# [4] = target: T4, EGFR Exon19Del (Homo sapiens, UniProt P00533, DEL746-750); assay: Inhibition of EGFR Exon19Del biochemical enzymatic activity (HTRF); details: read-out: IC50 @Del19
# T4 construct: purchased Carna Bio
# Description: as §1, §2, §3
# [5] = target: T5, EGFR Exon19Del/T790M (Homo sapiens, UniProt P00533, DEL746-750/T790M); assay: Inhibition of EGFR Exon19Del/T790M biochemical enzymatic activity (HTRF); details: 1 mM ATP
# T5 construct: purchased Carna Bio
# Description: as §1, §2, §3
# [6] = target: T6, EGFR[T790M/C797S/L858R] (Homo sapiens, UniProt P00533, C797S/L858R/T790M); assay: Inhibition of EGFR[T790M/C797S/L858R] biochemical enzymatic activity (HTRF); details: 1 mM ATP
# T6 construct: purchased Carna Bio
# Description: as §1, §2, §3
# [7] = target: T7, EGFR[T790M/C797S/d746-750] (Homo sapiens, UniProt P00533, C797S/DEL746-750/T790M); assay: Inhibition of EGFR[T790M/C797S/d746-750] biochemical enzymatic activity (HTRF)
# T7 construct: purchased Carna Bio
# Description: as §1, §2, §3
# [8] = target: T8, EGFR (d746-750 C797S) (Homo sapiens, UniProt P00533, C797S/DEL746-750); assay: Inhibition of EGFR (d746-750 C797S) biochemical enzymatic activity (HTRF); details: 1 mM ATP
# T8 construct: purchased signalchem
# Description: as §1, §2, §3
# [9] = target: T9, EGFR (C797S L858R) (Homo sapiens, UniProt P00533, C797S/L858R); assay: Inhibition of EGFR (C797S L858R) biochemical enzymatic activity (HTRF); details: 1 mM ATP
# T9 construct: purchased signalchem
# Description: as §1, §2, §3
# [10] = tested on: Ba/F3 cells expressing EGFR mutations; assay: Cell proliferation assay, Ba/F3 cells expressing EGFR mutations (CellTiter-Glo, 72 hours); type: cell-based
# Description: (§4) Biological Example 2: Cell Proliferation Assays
# (§5) Ba/F3 cells expressing EGFR mutations were seeded in 384-well plates at 5000 cells/well in RPMI1640 medium containing […]. PC-9 at 500 cells/well was seeded into 384-well plates in RPMI1640 medium with 10% FBS. After overnight incubation, the assay plates were dosed with compounds at a series of concentrations. Alongside dosing the assay plates, the day 0 plate was processed using CellTiter-Glo® Luminescent Cell Viability Assay (Promega) to measure the number of viable cells (G0). The assay plates were further incubated for 72 hours and the number of viable cells (G3) was measured. The percentage of proliferation was calculated as: […]=100×(G3 value of sample well−G0 value)/(G3 value of DMSO control−G0 value). The concentration of compound producing 50% proliferation inhibition (GI50) was further calculated in best-fit curves using XLFit software. N/A=not available.
# [11] = tested on: PC-9; assay: Cell proliferation assay, PC-9 cells (CellTiter-Glo, 72 hours); type: cell-based; details: PC9 cells
# Description: as §4, §5
# [12] = EGFR wild type, 1 h at room temperature, read-out: IC50 @WT
# [13] = 1 h at room temperature, read-out: IC50 @L858R
# [14] = EGFR L858R/T790M, 1 h at room temperature, read-out: IC50 @L858R-T790M
# [15] = EGFR Exon19Del, 1 mM ATP, 1 h at room temperature
# [16] = EGFR Exon19Del/T790M, 1 h at room temperature, read-out: IC50 @Del19-T790M
# [17] = EGFR[T790M/C797S/L858R], 1 h at room temperature, read-out: IC50 @T790M- C797S - L858R
# [18] = EGFR[T790M/C797S/d746-750], 1 mM ATP, 1 h at room temperature, read-out: IC50 @T790M - C797S - Del19
# [19] = EGFR (d746-750 C797S), 1 h at room temperature, read-out: IC50 @Del19-C797S
# [20] = EGFR (C797S L858R), 1 h at room temperature, read-out: IC50 @L858-C797S
# T1 sequence (P00533 25-1210): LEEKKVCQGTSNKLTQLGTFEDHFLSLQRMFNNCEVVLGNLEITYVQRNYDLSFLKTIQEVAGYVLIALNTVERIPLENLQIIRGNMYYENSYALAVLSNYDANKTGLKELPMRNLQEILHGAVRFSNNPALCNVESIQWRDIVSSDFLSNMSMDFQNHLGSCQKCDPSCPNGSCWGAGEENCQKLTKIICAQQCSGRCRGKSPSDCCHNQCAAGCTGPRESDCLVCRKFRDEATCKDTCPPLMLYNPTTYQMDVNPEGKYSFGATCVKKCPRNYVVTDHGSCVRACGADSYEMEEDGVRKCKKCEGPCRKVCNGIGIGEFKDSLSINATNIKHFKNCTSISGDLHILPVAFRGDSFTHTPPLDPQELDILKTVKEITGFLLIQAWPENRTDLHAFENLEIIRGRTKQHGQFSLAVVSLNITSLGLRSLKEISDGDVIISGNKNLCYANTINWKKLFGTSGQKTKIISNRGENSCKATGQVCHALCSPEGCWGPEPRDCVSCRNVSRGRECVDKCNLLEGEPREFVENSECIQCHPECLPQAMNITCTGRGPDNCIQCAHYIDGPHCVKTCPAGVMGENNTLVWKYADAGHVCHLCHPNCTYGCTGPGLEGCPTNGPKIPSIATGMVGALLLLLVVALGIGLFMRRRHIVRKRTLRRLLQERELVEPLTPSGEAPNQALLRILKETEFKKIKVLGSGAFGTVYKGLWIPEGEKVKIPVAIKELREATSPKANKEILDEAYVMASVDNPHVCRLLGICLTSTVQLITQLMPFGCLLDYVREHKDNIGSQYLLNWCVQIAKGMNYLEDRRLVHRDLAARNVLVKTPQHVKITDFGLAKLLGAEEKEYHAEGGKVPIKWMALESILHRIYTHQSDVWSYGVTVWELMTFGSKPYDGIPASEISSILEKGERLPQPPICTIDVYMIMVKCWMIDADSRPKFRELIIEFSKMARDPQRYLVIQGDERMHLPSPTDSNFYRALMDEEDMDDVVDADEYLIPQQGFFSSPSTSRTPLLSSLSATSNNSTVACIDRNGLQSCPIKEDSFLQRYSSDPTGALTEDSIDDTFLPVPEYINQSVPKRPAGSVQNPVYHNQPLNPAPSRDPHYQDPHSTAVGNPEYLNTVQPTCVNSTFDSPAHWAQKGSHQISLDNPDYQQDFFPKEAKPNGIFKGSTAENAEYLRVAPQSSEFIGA
# T6 sequence (P00533 25-1210 T790M/C797S/L858R): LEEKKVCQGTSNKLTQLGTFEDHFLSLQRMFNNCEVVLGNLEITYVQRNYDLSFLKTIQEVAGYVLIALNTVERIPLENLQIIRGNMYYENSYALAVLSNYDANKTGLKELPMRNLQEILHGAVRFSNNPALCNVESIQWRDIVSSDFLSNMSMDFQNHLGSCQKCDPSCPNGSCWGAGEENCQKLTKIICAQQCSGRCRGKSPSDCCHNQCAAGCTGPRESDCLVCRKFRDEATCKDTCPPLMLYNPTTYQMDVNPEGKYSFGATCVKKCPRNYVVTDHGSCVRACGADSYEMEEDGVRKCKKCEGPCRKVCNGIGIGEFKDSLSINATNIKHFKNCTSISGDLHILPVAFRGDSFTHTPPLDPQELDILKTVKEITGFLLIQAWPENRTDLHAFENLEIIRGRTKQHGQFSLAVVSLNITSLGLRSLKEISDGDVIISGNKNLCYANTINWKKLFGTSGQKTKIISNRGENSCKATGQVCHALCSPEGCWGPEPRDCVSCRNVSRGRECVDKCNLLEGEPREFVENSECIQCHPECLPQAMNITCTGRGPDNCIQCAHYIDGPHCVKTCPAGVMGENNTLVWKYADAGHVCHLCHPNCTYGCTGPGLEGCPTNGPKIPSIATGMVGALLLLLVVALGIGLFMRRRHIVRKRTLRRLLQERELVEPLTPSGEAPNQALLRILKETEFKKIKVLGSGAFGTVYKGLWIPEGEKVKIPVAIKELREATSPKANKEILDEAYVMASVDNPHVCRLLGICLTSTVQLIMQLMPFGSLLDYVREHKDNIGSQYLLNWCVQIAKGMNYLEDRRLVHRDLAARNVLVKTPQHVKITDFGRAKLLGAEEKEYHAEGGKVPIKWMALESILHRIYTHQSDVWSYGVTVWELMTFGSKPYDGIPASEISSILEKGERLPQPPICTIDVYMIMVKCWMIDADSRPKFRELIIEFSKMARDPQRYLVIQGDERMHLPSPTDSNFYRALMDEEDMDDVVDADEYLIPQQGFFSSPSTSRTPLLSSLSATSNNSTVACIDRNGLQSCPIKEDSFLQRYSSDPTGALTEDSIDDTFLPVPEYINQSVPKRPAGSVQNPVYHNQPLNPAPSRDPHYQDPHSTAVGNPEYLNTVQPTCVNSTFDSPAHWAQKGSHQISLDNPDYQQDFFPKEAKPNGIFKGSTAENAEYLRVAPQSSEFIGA
# T5 sequence (P00533 with tags, fused parts or gaps DEL746-750/T790M limits assumed): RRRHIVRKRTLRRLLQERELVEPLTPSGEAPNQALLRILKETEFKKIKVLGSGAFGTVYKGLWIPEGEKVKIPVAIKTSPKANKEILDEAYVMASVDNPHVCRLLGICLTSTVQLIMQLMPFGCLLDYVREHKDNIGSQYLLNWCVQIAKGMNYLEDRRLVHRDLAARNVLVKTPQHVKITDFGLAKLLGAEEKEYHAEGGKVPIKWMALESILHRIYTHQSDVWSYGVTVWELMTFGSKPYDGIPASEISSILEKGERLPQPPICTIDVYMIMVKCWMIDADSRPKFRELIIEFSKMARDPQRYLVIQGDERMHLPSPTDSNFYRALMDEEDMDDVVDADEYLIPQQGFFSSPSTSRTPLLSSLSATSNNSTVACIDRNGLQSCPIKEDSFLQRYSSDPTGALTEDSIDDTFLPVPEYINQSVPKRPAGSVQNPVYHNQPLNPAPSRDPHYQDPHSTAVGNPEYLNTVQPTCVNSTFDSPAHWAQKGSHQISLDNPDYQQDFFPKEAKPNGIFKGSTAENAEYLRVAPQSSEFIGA
# T8 sequence (P00533 with tags, fused parts or gaps DEL746-750/C797S limits assumed): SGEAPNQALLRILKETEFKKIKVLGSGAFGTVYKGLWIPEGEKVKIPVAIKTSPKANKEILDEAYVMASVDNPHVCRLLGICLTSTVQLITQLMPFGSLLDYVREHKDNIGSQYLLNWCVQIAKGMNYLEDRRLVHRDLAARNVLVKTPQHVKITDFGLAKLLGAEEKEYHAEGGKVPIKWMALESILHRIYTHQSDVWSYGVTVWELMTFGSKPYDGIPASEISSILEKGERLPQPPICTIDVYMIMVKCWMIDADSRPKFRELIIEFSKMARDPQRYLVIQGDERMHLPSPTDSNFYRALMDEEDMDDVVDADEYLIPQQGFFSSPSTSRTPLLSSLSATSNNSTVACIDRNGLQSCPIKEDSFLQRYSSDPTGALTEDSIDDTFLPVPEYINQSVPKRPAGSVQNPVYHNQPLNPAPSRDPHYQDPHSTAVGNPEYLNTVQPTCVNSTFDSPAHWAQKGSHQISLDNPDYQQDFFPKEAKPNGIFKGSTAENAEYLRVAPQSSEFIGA
# T4 sequence (P00533 with tags, fused parts or gaps DEL746-750 limits assumed): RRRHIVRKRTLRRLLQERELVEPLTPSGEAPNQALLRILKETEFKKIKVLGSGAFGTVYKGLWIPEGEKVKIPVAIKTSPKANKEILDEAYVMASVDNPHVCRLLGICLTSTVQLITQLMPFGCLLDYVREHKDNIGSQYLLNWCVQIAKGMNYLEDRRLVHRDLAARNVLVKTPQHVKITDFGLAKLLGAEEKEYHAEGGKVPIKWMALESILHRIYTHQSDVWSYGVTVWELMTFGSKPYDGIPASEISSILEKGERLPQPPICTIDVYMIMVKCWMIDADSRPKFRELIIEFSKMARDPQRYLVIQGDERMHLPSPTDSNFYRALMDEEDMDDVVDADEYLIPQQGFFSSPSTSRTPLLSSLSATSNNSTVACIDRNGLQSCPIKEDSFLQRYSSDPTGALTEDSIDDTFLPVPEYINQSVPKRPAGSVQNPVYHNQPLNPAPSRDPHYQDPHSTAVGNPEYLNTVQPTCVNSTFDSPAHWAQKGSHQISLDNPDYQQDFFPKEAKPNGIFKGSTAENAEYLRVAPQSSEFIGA
# T7 sequence (P00533 with tags, fused parts or gaps DEL746-750/T790M/C797S limits assumed): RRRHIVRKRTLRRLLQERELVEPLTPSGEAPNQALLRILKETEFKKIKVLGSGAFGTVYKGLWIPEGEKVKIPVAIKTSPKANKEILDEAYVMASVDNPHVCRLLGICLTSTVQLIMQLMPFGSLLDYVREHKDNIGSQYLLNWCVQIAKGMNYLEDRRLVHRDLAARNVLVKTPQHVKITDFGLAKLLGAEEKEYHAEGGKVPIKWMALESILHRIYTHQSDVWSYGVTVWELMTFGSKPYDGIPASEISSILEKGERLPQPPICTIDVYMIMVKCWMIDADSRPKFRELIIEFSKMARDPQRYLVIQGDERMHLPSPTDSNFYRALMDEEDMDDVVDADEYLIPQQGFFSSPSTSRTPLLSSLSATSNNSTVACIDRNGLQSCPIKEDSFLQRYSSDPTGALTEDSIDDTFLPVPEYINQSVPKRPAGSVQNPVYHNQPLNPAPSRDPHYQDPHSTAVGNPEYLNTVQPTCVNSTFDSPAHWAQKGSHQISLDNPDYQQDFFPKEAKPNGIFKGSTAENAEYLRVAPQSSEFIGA
smiles,measurement,setting,value
"Cc1cc2cc(n1)-c1cnn(C)c1OCCN1CC3CCC(C3)(C1)n1c(nc3ccc(N4CCC(N5CCN(C)CC5)CC4)cc31)NC2=O (single isomer, unassigned) [Example B59B]",IC50,[1]; [12],360 nM
same,IC50,[2]; [13],27 nM
same,IC50,[3]; [14],7.7 nM
same,IC50,[4]; [15],0.012 µM
same,IC50,[5]; [16],10 nM
same,IC50,[6]; [17],4.4 nM
same,IC50,[7]; [18],6.1 nM
same,IC50,[8]; [19],5 nM
same,IC50,[9]; [20],9.5 nM
same,GI50,"[10]; BaF3 cells, EGFR DEL19 - C797S, read-out: GI50 DEL19 - C797S/BaF3",0.011 µM
same,GI50,"[10]; BaF3 cells, EGFR DEL19 - T790-C797S, read-out: GI50 DEL19 - T790-C797S/BaF3",0.012 µM
same,GI50,"[10]; BaF3 cells, EGFR L858R - C797S, read-out: GI50 L858R - C797S/BaF3",0.027 µM
same,GI50,"[10]; BaF3 cells, EGFR L858R - T790-C797S, read-out: GI50 L858R - T790-C797S/BaF3",0.003 µM
same,GI50,"[10]; BaF3 cells, EGFR L858R - T790M, read-out: GI50 L858R - T790M/BaF3",0.011 µM
same,GI50,"[10]; BaF3 cells, EGFR L858R, read-out: GI50 L858R/BaF3",0.036 µM
same,GI50,"[10]; EGFR DEL19 - T790M, read-out: GI50 DEL19 - T790M",0.013 µM
same,GI50,[11]; read-out: GI50 PC9,0.032 µM
"CN1CCC2CN(c3ccc4nc5n(c4c3)C34CCC(CN(CCOc6c(cnn6C)-c6cc(cn(C)c6=O)C(=O)N5)C3)C4)CC21 (single isomer, unassigned) [Example A79A]",IC50,"[1]; EGFR WT, 1 h, room temperature, read-out: IC50 (nM) @WT",> 5000 nM
same,IC50,"[2]; 1 h, room temperature, read-out: IC50 (nM) @L858R",> 5000 nM
same,IC50,"[3]; EGFR L858R-T790M, 1 h, room temperature, read-out: IC50 (nM) @L858R-T790M",> 5000 nM
same,IC50,"[4]; EGFR Del19, 1 mM ATP, 1 h, room temperature",1.43 µM
same,IC50,"[5]; EGFR Del19-T790M, 1 h, room temperature, read-out: IC50 (nM) @Del19-T790M",> 5000 nM
same,IC50,"[6]; EGFR T790M-C797S-L858R, 1 h, room temperature, read-out: IC50 (nM) @T790M- C797S - L858R",> 5000 nM
same,IC50,"[7]; EGFR T790M-C797S-Del19, 1 mM ATP, 1 h, room temperature, read-out: IC50 (nM) @T790M - C797S - Del19",> 5000 nM
same,IC50,"[8]; EGFR Del19-C797S, 1 h, room temperature, read-out: IC50 (nM) @Del19-C797S",1580 nM
same,IC50,"[9]; EGFR L858-C797S, 1 h, room temperature, read-out: IC50 (nM) @L858-C797S",> 5000 nM
same,GI50,"[10]; BaF3 cells, EGFR DEL19-C797S, CellTiter-Glo, read-out: DEL19-C797S/BaF3 GI50",0.251 µM
same,GI50,"[10]; BaF3 cells, EGFR DEL19-T790-C797S, CellTiter-Glo, read-out: DEL19-T790-C797S/BaF3 GI50",0.999 µM
same,GI50,"[10]; BaF3 cells, EGFR L858R, CellTiter-Glo, read-out: L858R/BaF3 GI50",0.99 µM
same,GI50,"[10]; BaF3 cells, EGFR L858R-C797S, CellTiter-Glo, read-out: L858R-C797S/BaF3 GI50",0.36 µM
same,GI50,"[10]; BaF3 cells, EGFR L858R-T790-C797S, CellTiter-Glo, read-out: L858R-T790-C797S/BaF3 GI50",1.91 µM
same,GI50,"[10]; BaF3 cells, EGFR L858R-T790M, CellTiter-Glo, read-out: L858R-T790M/BaF3 GI50",1.12 µM
same,GI50,"[10]; EGFR DEL19-T790M, CellTiter-Glo, read-out: DEL19-T790M GI50",0.882 µM
same,GI50,"[11]; CellTiter-Glo, read-out: PC9 GI50",0.993 µM
"Cc1cc2cc(n1)-c1cnn(C)c1OCCCCCn1c(nc3ccn(C)c(=O)c31)NC2=O [Example B20, 5,16,26-Trimethyl-7-oxa-4,5,13,16,20,22,27-heptaazapentacyclo[22.3.1.0^{2,6}.0^{13,21}.0^{14,19}]octacosa-1(27),2(6),3,14(19),17,20,24(28),25-octaene-15,23-dione]",IC50,[1]; [12],> 5000 nM
same,IC50,[2]; [13],> 5000 nM
same,IC50,[3]; [14],> 5000 nM
same,IC50,[4]; [15],> 5 µM
same,IC50,[5]; [16],685 nM
same,IC50,[6]; [17],> 5000 nM
same,IC50,[7]; [18],122 nM
same,IC50,[8]; [19],> 5000 nM
same,IC50,[9]; [20],> 5000 nM
same,GI50,"[10]; Mus musculus, BaF3, 72 h, BaF3 cells, EGFR DEL19 - C797S, read-out: GI50 DEL19 - C797S/BaF3",0.487 µM
same,GI50,"[10]; Mus musculus, BaF3, 72 h, BaF3 cells, EGFR DEL19 - T790-C797S, read-out: GI50 DEL19 - T790-C797S/BaF3",0.258 µM
same,GI50,"[10]; Mus musculus, BaF3, 72 h, BaF3 cells, EGFR L858R - C797S, read-out: GI50 L858R - C797S/BaF3",10 µM
same,GI50,"[10]; Mus musculus, BaF3, 72 h, BaF3 cells, EGFR L858R - T790-C797S, read-out: GI50 L858R - T790-C797S/BaF3",0.159 µM
same,GI50,"[10]; Mus musculus, BaF3, 72 h, BaF3 cells, EGFR L858R - T790M, read-out: GI50 L858R - T790M/BaF3",1.02 µM
same,GI50,"[10]; Mus musculus, BaF3, 72 h, BaF3 cells, EGFR L858R, read-out: GI50 L858R/BaF3",2.04 µM
same,GI50,"[10]; Mus musculus, BaF3, 72 h, EGFR DEL19 - T790M, read-out: GI50 DEL19 - T790M",0.331 µM
same,GI50,"[11]; Homo sapiens, PC-9, 72 h, read-out: GI50 PC9",1.28 µM
